Reference: patent US7449463B2, “Morpholinyl containing benzimidazoles as inhibitors of respiratory syncytial virus replication” (Tibotec Pharmaceuticals Ltd., priority 2003, dated 2008)

How the values were obtained:
[1] = tested on: Respiratory Syncytial Virus; assay: microbe, parasite or virus in culture; type: cell-based; settings: human respiratory syncytial virus
Procedure, shortened: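 HeLa cells infected with ~100 TCID50 RSV in Eagle's Basal Medium with 5% FCS, five-fold compound dilutions, 37° C, 5% CO2 for 7 days. Viability by MTT (A540 minus A690); EC50 for protection against cytopathic effect and CC50 from mock-infected wells, SI = CC50/EC50.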

[2] = 168 h, RSV-infected HeLa cells, MTT readout seven days after infection, −log of EC50 in molar units
[3] = pEC50 (−log of EC50 when expressed in molar units), protection against RSV cytopathology

Row | Compound | melting point [°C] | EC50 [1, 3] [nM] | EC50 [1, 2] [nM]
1 | Cc1cc(C)c2nc(N(CC(C)N3CCOCC3)C3CCNCC3)n(Cc3nc(C)ccc3O)c2c1 (centres unmarked) [Compound 161, 2-[4,6-dimethyl-2-(2-morpholin-4-ylpropyl-piperidin-4-ylamino)-benzoimidazol-1-ylmethyl]-6-methyl-pyridin-3-ol] | 223 |  | 2.51
2 | Cc1cc(C)c2nc(N(CCN3CCOCC3)C3CCNCC3)n(Cc3nc(C)ccc3O)c2c1 [Compound 170, 2-[4,6-dimethyl-2-(2-morpholin-4-ylethyl-piperidin-4-ylamino)-benzoimidazol-1-ylmethyl]-6-methyl-pyridin-3-ol] | 237 |  | 794
3 | Cc1cc(C)cc(NCc2ccc3nc(NCCCN4CC(C)OC(C)C4)n(Cc4nc(C)ccc4O)c3c2)c1 (centres unmarked) [Compound 172, 2-{2-[3-(2,6-dimethyl-morpholin-4-yl)-propylamino]-6-[(3,5-dimethyl-phenylamino)-methyl]-benzoimidazol-1-ylmethyl}-6-methyl-pyridin-3-ol] | 192 |  | 15.8
4 | Cc1cc(C)c2nc(NCCCN3CCOC(CC(N)=O)C3)n(Cc3nc(C)ccc3O)c2c1 (centres unmarked) [Compound 191, 2-(4-{3-[1-(3-Hydroxy-6-methyl-pyridin-2-ylmethyl)-4,6-dimethyl-1H-benzoimidazol-2-ylamino]-propyl}-morpholin-2-yl)-acetamide] | 148 |  | 158
5 | Cc1ccc(CCO)c(NCc2ccc3nc(NCCCN4CCOCC4)n(C4CCCc5nc(C)c(C)nc54)c3c2)c1 (centres unmarked) [Compound 193, 2-(2-{[3-(2,3-Dimethyl-5,6,7,8-tetrahydroquinoxalin-5-yl)-2-(3-morpholin-4-yl-propylamino)-3H-benzoimidazol-5-ylmethyl]-amino}-4-methyl-phenyl)-ethanol] | 162 | 0.501 | 
6 | Cc1cc(C)cc(N(CCCC(N)=O)Cc2ccc3nc(NCCCN4CCOCC4)n(C4CCCc5nc(C)c(C)nc54)c3c2)c1 (centres unmarked) [Compound 213, 4-{(3,5-Dimethyl-phenyl)-[3-(2,3-dimethyl-5,6,7,8-tetrahydro-quinoxalin-5-yl)-2-(3-morpholin-4-yl-propylamino)-3H-benzoimidazol-5-ylmethyl]-amino}-butyramide] | 109 | 1.58 | 
7 | Cc1ccc(CCCO)c(NCc2ccc3nc(NCCCN4CCOCC4)n(Cc4cccc5c4ncn5C)c3c2)c1 [Compound 218, 3-(4-Methyl-2-{[3-(1-methyl-1H-benzoimidazol-4-ylmethyl)-2-(3-morpholin-4-yl-propylamino)-3H-benzoimidazol-5-ylmethyl]-amino}-phenyl)-propan-1-ol] | 198 | 2.51 | 
8 | Cc1cc(C)cc(N(CCCC(N)=O)Cc2ccc3nc(NCCCN4CCOCC4)n(Cc4cccc5cccnc45)c3c2)c1 [Compound 223, 4-{(3,5-Dimethyl-phenyl)-[2-(3-morpholin-4-yl-propylamino)-3-quinolin-8-ylmethyl-3H-benzoimidazol-5-ylmethyl]-amino}-butyramide] | 154 | 3.16 | 
9 | Cc1cc(C)cc(N(CCCC(N)=O)Cc2ccc3nc(NCCCN4CCOCC4)n(Cc4cccc5c4ncn5C)c3c2)c1 [Compound 230, 4-{(3,5-Dimethyl-phenyl)-[3-(1-methyl-1H-benzoimidazol-4-ylmethyl)-2-(3-morpholin-4-yl-propylamino)-3H-benzoimidazol-5-ylmethyl]-amino}-butyramide] | 206 | 3.98 | 
10 | Cc1cc(C)cc(N(CCO)Cc2ccc3nc(NCCCN4CCOCC4)n(Cc4nc(C)c(C)nc4C)c3c2)c1 [Compound 233, 2-{(3,5-Dimethyl-phenyl)-[2-(3-morpholin-4-yl-propylamino)-3-(3,5,6-trimethyl-pyrazin-2-ylmethyl)-3H-benzoimidazol-5-ylmethyl]-amino}-ethanol] | 140 | 5.01 | 
11 | Cc1ccc(CCCO)c(NCc2ccc3nc(NCCCN4CCOCC4)n(Cc4nc(C)c(C)nc4C)c3c2)c1 [Compound 255, 3-(4-Methyl-2-{[2-(3-morpholin-4-yl-propylamino)-3-(3,5,6-trimethyl-pyrazin-2-ylmethyl)-3H-benzoimidazol-5-ylmethyl]-amino}-phenyl)-propan-1-ol] | 120 | 25.1 | 
12 | Cc1cc(C)cc(N(CCCC(N)=O)Cc2ccc3nc(NCCCN4CCOCC4)n(Cc4cccc(Br)n4)c3c2)c1 [Compound 261, 4-[[3-(6-Bromo-pyridin-2-ylmethyl)-2-(3-morpholin-4-yl-propyl-amino)-3H-benzoimidazol-5-ylmethyl]-(3,5-dimethyl-phenyl)-amino]-butyramide] | 82 | 31.6 | 

The next lines start with results.

Row | melting point [°C] | EC50 [1, 3] [nM] | Compound | EC50 [1, 2] [nM]
13 | 172 |  | Cc1cc(C)cc(NC(=O)c2ccc3nc(NCCCN4CCOCC4)n(Cc4nc(C)ccc4O)c3c2)c1 [Compound 160] | > 10000
14 | 150 |  | Cc1cc(C)cc(NCc2ccc3nc(NC4CCNC(CCN5CCOCC5)C4)n(Cc4nc(C)ccc4O)c3c2)c1 (centres unmarked) [Compound 163, 2-{6-[(3,5-dimethyl-phenylamino)-methyl]-2-[2-(2-morpholin-4-yl-ethyl)-piperidin-4-ylamino]-benzoimidazol-1-ylmethyl}-6-methyl-pyridin-3-ol] | 12.6
15 | 159 |  | Cc1ccc(O)c(Cn2c(NC3CCNC(CCN4CCOCC4)C3)nc3ccc(CCc4ccccc4)cc32)n1 (centres unmarked) [Compound 165, 6-methyl-2-{2-[2-(2-morpholin-4-yl-ethyl)-piperidin-4-ylamino]-6-phenethyl-benzoimidazol-1-ylmethyl}-pyridin-3-ol] | 126
16 | 224 |  | Cc1ccc(O)c(Cn2c(NC3CCNC(CCN4CCOCC4)C3)nc3ccc(C=Cc4ccccc4)cc32)n1 (centres unmarked) [Compound 169, 6-methyl-2-{2-[2-(2-morpholin-4-yl-ethyl)-piperidin-4-ylamino]-6-styryl-benzoimidazol-1-ylmethyl}-pyridin-3-ol] | 631
17 | 198 |  | Cc1cc(C)cc(NCc2ccc3nc(NCC(O)CN4CCOCC4)n(Cc4nc(C)ccc4O)c3c2)c1 (centres unmarked) [Compound 171, 2-[6-[(3,5-dimethyl-phenylamino)-methyl]-2-(2-hydroxy-3-morpholin-4-yl-propyl-amino)-benzoimidazol-1-ylmethyl]-6-methyl-pyridin-3-ol] | 2.51
18 | 192 | 0.501 | Cc1ccc(CCO)c(NCc2ccc3nc(NCCCN4CCOCC4)n(Cc4ncccc4O)c3c2)c1 [Compound 192, 2-[6-{[2-(2-Hydroxy-ethyl)-5-methyl-phenylamino]-methyl}-2-(3-morpholin-4-yl-propylamino)-benzoimidazol-1-ylmethyl]-pyridin-3-ol] | 
19 | 134 | 0.501 | Cc1ccc(CCCO)c(NCc2ccc3nc(NCCCN4CCOCC4)n(Cc4cc(Br)ccc4O)c3c2)c1 [Compound 201, 4-Bromo-2-[6-{[2-(3-hydroxy-propyl)-5-methyl-phenylamino]-methyl}-2-(3-morpholin-4-yl-propylamino)-benzoimidazol-1-ylmethyl]-phenol] | 
20 | 132 | 2.51 | COc1ccc(C)nc1Cn1c(NCCCN2CCOCC2)nc2ccc(CNc3cc(C)ccc3CCCO)cc21 [Compound 219, 3-(2-{[3-(3-Methoxy-6-methyl-pyridin-2-ylmethyl)-2-(3-morpholin-4-yl-propylamino)-3H-benzoimidazol-5-ylmethyl]-amino}-4-methyl-phenyl)-propan-1-ol] | 
21 | 165 | 5.01 | Cc1ccc(CCCO)c(NCc2ccc3nc(NCCCN4CCOCC4)n(Cc4cccc5cccnc45)c3c2)c1 [Compound 234, 3-(4-Methyl-2-{[2-(3-morpholin-4-yl-propylamino)-3-quinolin-8-ylmethyl-3H-benzoimidazol-5-ylmethyl]-amino}-phenyl)-propan-1-ol] | 
22 | 141 | 50.1 | Cc1ccc(CCCO)c(NCc2ccc3nc(NCCCN4CCOCC4)n(Cc4cccc(Br)n4)c3c2)c1 [Compound 267, 3-(2-{[3-(6-Bromo-pyridin-2-ylmethyl)-2-(3-morpholin-4-yl-propylamino)-3H-benzoimidazol-5-ylmethyl]-amino}-4-methyl-phenyl)-propan-1-ol] | 
